These results are taken from US7635686B2, “Therapeutically useful triethyleneglycol cholesteryl oligonucleotides” (Bioniche Life Sciences, Inc., priority 2001, dated 2009).

{TEG-Chol} = cholesteryl attached through a triethylene glycol (TEG) linker

For data set [1], the system named is MDA-MB-231 (MDA-231) cells. In words: Treatment of pre-formed 3-dimensional MDA-231 structures on MATRIGEL
The class given is cell-based, human. As to conditions: MDA-231, 53 μM, repeated every 3-4 days up to 17-21 days, FIG. 4. The method, then: The MDA-MB-231 (MDA-231) cells were cultured in regular culture medium, trypsinized and counted. 100×10^3 of MDA-231 cells were plated in regular culture medium (RCM), in wells of 24-well plates coated with 350 μl of MATRIGEL®. After the formation of 3-dimensional structures during 48 hrs without any treatment, the medium was changed, and structures were exposed to a final concentration of 53 μM of SEQ ID NO:3, 53 μM of SEQ ID NO:7, 53 μM of cholesteryl-TEG phosphoramidite, RCM, or their respective control media (RCM with water, RCM with DMSO or RCM with acetonitrile). The treatments were repeated every 3-4 days until a maximum time in culture of 17-21 days. The experiment was repeated three times. Digital photographs of the cells in the 24-well plates were taken using a Nikon Coolpix 990 digital camera connected to a Nikon inverted microscope model TMS.

In data set [2] the test system is MDA-MB-231 (MDA-231) cells. Put plainly: Cellular proliferation of MDA-231 cells (Trypan blue exclusion count). The class given is cell-based, human. As to conditions: MDA-231, 53 μM; for Effect on cellular proliferation (in words): 72 hrs; for Percentage of changes in cellular proliferation compared to controls (mean ± s.d.): cultured for 3 days, + stimulation, − inhibition, three independent assays. The method, then:
(§1) Either 20×10^3 MDA-MB-231 (MDA-231) or Hs578T cells were plated into individual wells of 24-well plates in regular culture medium (RCM) presence or absence (control) of 53 μM (final concentration) of SEQ ID NO:3, SEQ ID NO:7, 53 μM cholesteryl-TEG phosphoramidite, or corresponding control media (regular culture medium (RCM) for SEQ ID NO:3, RCM with the same amount of water as the amount added with the SEQ ID NO:7, and RCM with the same amount of acetonitrile as the amount added with cholesteryl-TEG phosphoramidite). Cells were cultured for 72 hrs, removed with trypsin and counted with an hemocytometer using the Trypan blue exclusion technique. Results of three independent assays (mean and standard deviation (s.d.) of percentage of changes compared to controls) are shown in Table 9.

Data set [3] deals with Hs578T cells. Put plainly: Cellular proliferation of Hs578T cells (Trypan blue exclusion count). Format: cell-based, human. The following applies: 53 μM; for Effect on cellular proliferation (in words): 72 hrs; for Percentage of changes in cellular proliferation compared to controls (mean ± s.d.): cultured for 3 days, + stimulation, − inhibition, three independent assays. Here is the method:
as §1

In data set [4] the test system is Hs578T cells. In words: Cell cycle progression in Hs578T multicellular spheroids (PI staining). The following applies: 53 μM, 72 hrs, FIG. 5. Format: cell-based, human. Here is the method:
Multicellular spheroids (MS) is an example of a special in vitro assay, in which tumor cells are cultured in a 3-dimensional manner to form a “tumor-like” structure. In this system, there is a reinforcement of cell-cell interactions that mimic microenvironmental conditions of malignant cells in solid tumors in vivo. In this type of assay, no extracellular matrix components are added. Cells cultured in this MS system differ from those in 2-dimensional systems (monolayer culture conditions). Some of these differences are related to structural and functional differentiation of tumor cells, changes in the cell cycle of tumor cells, “multicellular drug resistance”, and changes in the diffusion and penetration of drugs throughout layers of tumor cells (reviewed in Green et al., Anticancer Drug Des. 14:153, 1999).
About 100×10^3 Hs578T cells per spheroid were cultured in presence of 53 μM final concentration of SEQ ID NO:3, SEQ ID NO:7, 53 μM final concentration of cholesteryl-TEG phosphoramidite (cholTEG) or corresponding control media (regular culture medium (RCM), RCM with the same amount of water (RCMW) as the amount added with the SEQ ID NO:7, and RCM with the same amount of acetonitrile (RCMA) as the amount added with cholesteryl-TEG phosphoramidite). Five spheroids per each experimental condition were cultured for 72 hrs. Afterwards, cell cycle progression was evaluated by propidium iodide (PI) staining (Calbiochem, Novabiochem Corporation, San Diego, Calif.) using a FACScalibur flow cytometer (Becton Dickinson, Franklin Lakes, N.J.). Changes in the percentage of cells in the different phases of the cell cycle were analyzed using MODFIT LT software (Verity Software House Inc).

A further data set has as its system HIG-82 cells. In words: HIG-82 synovial cell proliferation (MTT reduction). The class given is cell-based, rabbit. The following applies: 53 μM, 48 hours; for Inhibition of HIG-82 cell proliferation, inhibition (%): MTT. The gist of the method: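 Adherent synovial cells at 10×10^5 cells/ml exposed 48 h to […] at 53 μM final. Proliferation measured by MTT reduction read at 570 nm and expressed as percentage inhibition.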
For orientation: Tetrazolium assays rely on reduction of a dye to a coloured formazan, in cell work by metabolically active cells.

The next data set relates to EL-4 cells. Put plainly: Apoptosis by phosphatidylserine redistribution (annexin V flow cytometry) in EL-4 cells. Format: cell-based, murine. As to conditions: 24 hours; for Percentage of positive cells for phosphatidylserine (cells in apoptosis) in EL-4 cells: untreated cells 7%; for Induction of apoptosis in EL-4 cells (in words): translocation of phosphatidylserine, up to 53.0 μM. The method, then:
Redistribution of plasma membrane phosphatidylserine is a characteristic of cells undergoing apoptosis (Martin et al., J. Exp. Med., 182:1545, 1995). The redistribution of phosphatidylserine in the plasma membrane during apoptosis was measured by flow cytometry using FITC (fluorescein isothiocyanate)-conjugated annexin V (BD Pharmingen, San Diego, Calif.). MEG-01 cells, a human chronic myelogeneous leukemia cell line positive for the Philadelphia chromosome and having a BCR-ABL gene fusion, were incubated at 2.5×10^5 cells/ml for 48 hours with 5.3, 26.5 and 53.0 μM final concentrations of SEQ ID NO:1, SEQ ID NO:2, SEQ ID NO:5, SEQ ID NO:6 and cholesteryl-TEG phosphoramidite molecule. The percentage of cells in apoptosis after exposure to the SEQ ID NOs:1, 2, 5, 6, or cholesteryl-TEG phosphoramidite treatment is reported in Table 2. The percentage of apoptosis in untreated MEG-01 cells was 12%.
EL-4 cells, a murine T lymphoma cell line, were incubated at 2.5×10^5 cells/ml for 24 hours with 0.53, 5.3 and 53.0 μM concentrations of SEQ ID NO:3, SEQ ID NO:7 or cholesteryl-TEG phosphoramidite. The percentage of cells in apoptosis after exposure to SEQ ID NO:3, SEQ ID NO:7 or cholesteryl-TEG phosphoramidite treatment is reported in Table 3. The percentage of apoptosis in untreated EL-4 cells was 7%.
For orientation: In flow cytometry, cells or beads pass a laser one at a time.

Take “5′ OH-CCACCC-OH 3′ (listed as DNA, chemistry not fully specified) [SEQ ID NO:3]”: the “Effect on pre-formed 3-dimensional structures on MATRIGEL” value in data set [1] is listed as “did not affect the 3-dimensional structures”. Moreover, the “Effect on cellular proliferation (in words)” value (in data set [2]; with Hs578T cells [3]) was “did not significantly affect cellular proliferation” throughout. The figures for the “Percentage of changes in cellular proliferation compared to controls (mean ± s.d.)” value (in data set [2]; in the data set with Hs578T cells [3]) were “+6.9 ± 5%” and −6.5 ± 5%, respectively. In addition, in the data set on Hs578T cells [4], the “Cell cycle progression in multicellular spheroids” value was “did not significantly modify cell cycle progression”. The “Inhibition of proliferation of synovial HIG-82 cells (in words)” value in the data set with HIG-82 cells is reported as “did not inhibit proliferation”. The “Inhibition of HIG-82 cell proliferation, inhibition (%)” value in the data set on HIG-82 cells stood at 0%. Moreover, the “Percentage of positive cells for phosphatidylserine (cells in apoptosis) in EL-4 cells” value with EL-4 cells (0.53 μM), with EL-4 cells (5.3 μM) and with EL-4 cells (53.0 μM) was 7% each time. Also, the “Induction of apoptosis in EL-4 cells (in words)” value with EL-4 cells is “neither SEQ ID NO:3 nor cholesteryl-TEG phosphoramidite caused apoptosis”.

As for “5′ OH-CCACCC(TEG-cholesteryl) 3′ (3' {TEG-Chol}, sugars by position and backbone not given here) [SEQ ID NO:7]”, the “Effect on pre-formed 3-dimensional structures on MATRIGEL” value in data set [1] is given as “disrupted the growth pattern of the structures”. The “Effect on cellular proliferation (in words)” value (in data set [2]; in the data set with Hs578T cells [3]) was “capacity to inhibit cellular proliferation” throughout. In addition, the results for the “Percentage of changes in cellular proliferation compared to controls (mean ± s.d.)” value (in data set [2]; with Hs578T cells [3]) were −97.9 ± 2.5% and −91.8 ± 10.5%, respectively. Moreover, the “Cell cycle progression in multicellular spheroids” value with Hs578T cells [4] is “increased the percentage of cells in G2M and S-phase and decrease the percentage of cells in G0/G1”. Besides, the “Inhibition of proliferation of synovial HIG-82 cells (in words)” value with HIG-82 cells is “capacity to inhibit the cellular proliferation”. The “Inhibition of HIG-82 cell proliferation, inhibition (%)” value with HIG-82 cells stood at 53%. In addition, the “Percentage of positive cells for phosphatidylserine (cells in apoptosis) in EL-4 cells” value in the data set with EL-4 cells (0.53 μM) came to 8%; in the data set on EL-4 cells (5.3 μM), 11%; with EL-4 cells (53.0 μM), 49%. Moreover, in the data set on EL-4 cells, the “Induction of apoptosis in EL-4 cells (in words)” value is recorded as “capacity to induce apoptosis”.
